Measurements taken from patent US20230406803A1, “TROPOLONE DERIVATIVES AND TAUTOMERS THEREOF FOR IRON REGULATION IN ANIMALS” (Kinesid Therapeutics, Inc, priority 2020, published 2023).

Columns and labels:
[1] = Ligand facilitated Fe(III) efflux from liposomes; type: biochemical; parameters: unit not given here; conditions: efflux rate k at 10 μM ligand concentration; ferrozine absorbance 562 nm, 120 min kinetic read
Description: Assay 1: Ligand Facilitated Fe(III) Efflux from Liposomes
Preparation of POPC (1 palmitoyl-2-oleoyl-sn-glycero-3 phosphocholine): Cholesterol Liposomes
A 1M buffer solution of MES and Tris was prepared by dissolving 121.14 grams of Tris base and 213.25 grams of MES hydrate in 500 mL of MilliQ water and adjusted to pH7.0 using an […] HCl solution before bringing the total volume of the solution to 1 L. A 500 mM solution of FeCl3 was prepared by dissolving 0.811 grams of anhydrous FeCl3 in 10 mL of a 0.1M H2SO4 aqueous solution. Inside buffer is prepared in a 50 mL falcon tube, which was added with 25 mL of MilliQ water, 1.61 g of sodium citrate, 1.5 mL of the above FeCl3 solution, and 2.5 mL of the 1M MES/Tris HCl buffer (pH=7.0), and finally additional MilliQ H2O to bring to a 50 mL final volume.
Lipid solution is prepared by dissolving 206.9 mg of POPC (1-palmitoyl-2-oleoyl-sn-glycero-3-phosphocholine) and 8.6 mg of cholesterol in 10 mL of ethanol.
The lipids solution and the inside buffer solution are independently loaded into 10 mL luer lock syringes for loading into a virgin cartridge on a Precision Nanosystems NanoAssembler to prepare unilamaller liposomes with the following parameters: 7.5 mL total volume, 1.5:1 mixing ratio of inside buffer:lipids solution, 8 mL/min flow rate, ambient temperature, 0.35 mL start waste, and 0.05 mL of end waste. 7.5 mL of liposomes is harvested for purification on a 6-inch long, 1-inch diameter Sephadex G-50 column wetted in 600 mM sodium ascorbate and 50 mM MES/Tris HCl pH 7.0 buffer. This buffer also serves as the column running buffer. The crude liposome solution is carefully loaded with minimal volume of running buffer above the top of the Sphadex, allowed to enter the matrix, and the column is run with the continued addition of running buffer. The eluting liposomes, observed as a milky and turbid solution, are collected until free iron begins to elute (observed as a deep purple color) and the fractions are pooled for phosphorus quantitation.
Determination of Phosphorus Content:
Phosphorus content of eluted liposomes was determined by the process outlined below. 10 μL of liposome elution and a running buffer blank are added to a 5 mL glass vial containing 450 μL of a 8.9 M aqueous H2SO4 solution, the mixture is heated to 225° C. for 25 minutes in an aluminum heat block to hydrolyze POPC and cooled for 5 minutes. 200 μL of a 30% hydrogen peroxide aqueous solution is added to each vial and heated to 225° C. for 25 minutes. After cooling, the phosphorus content was determined using an Abcam Phosphate Assay kit, with buffer subtracted phosphorus levels determined against a standard curve of phosphate included in the kit. Liposomes were diluted to 1 mM phosphate in Running Buffer for use in assays after accounting for dilutions made during phospholipid digestion.
Determination of the Iron Transporting Rate Constant of the Ligands:
Determination of the rate at which a small molecule ligand liberates (transport) Ferric iron from liposomes is performed in clear bottom black 384-well plates on a Spectramax i3x set to read the absorbance at 562 nm in the kinetic mode every 60 seconds for 120 minutes. 1 μL of serially diluted DMSO stock solution of a small molecule ligand is added to wells in triplicate to give the final concentrations of 40, 20, 10, 5, 2.5, and 1.25 uM of the ligand at 80 μL final volume, followed by addition of 1 μL of 100 mM Ferrozine in water to give a final concentration of 1 mM ferrozine. 78 μL of liposomes diluted to 1 mM phosphorus in running buffer is added to wells as quickly as possible (using a digital repeater multichannel pipette) with the kinetic read initiated as rapidly as possible after addition of liposomes to all wells. Typically, eight compounds at six concentrations are tested in triplicate simultaneously. […]

[2] = tested on: DMT1-deficient Caco-2 cells; test: shDMT1-Caco2 55Fe transport assay; type: cell-based; conditions: Caco-2
Excerpt: Assay 2: shDMT1-Caco2 ^55Fe Transport Assay to Assess Ligand Ability in Transporting Fe (III)
Cells: DMT1-deficient Caco-2 cells (alias: “shDMT1,” or “4A” cells) were from Grillo et al. Science, 2017, and were cryopreserved in liquid nitrogen prior to use.
Reagents and supplies: ^55FeCl3 was obtained from PerkinElmer (Boston, MA). Iron(III) chloride (FeCl3) hexahydrate was obtained from Sigma. Dulbecco's Modified Eagle Medium (DMEM), fetal bovine serum (FBS), L-glutamine, MEM nonessential amino acids, penicillin-streptomycin, G418, formic acid, methanol, high-purity water, ammonium formate, dimethyl sulfoxide (DMSO) were purchased from Fisher Scientific. Propranolol, atenolol and carbutamide were obtained from Sigma-Aldrich Chemical Company (St Louis, MO). Scintillation cocktail was obtained from Research Product International Co. (Mount Prospect, IL). Stericup filter system (PES membrane, 0.22 um pore size) was purchased from Fisher Scientific. Corning item #3378 24-well transwell insert plates.
Test articles: known compounds hinokitiol and deferiprone were purchased from Sigma. They are tested side by side with the small molecule ligands disclosed in this application. DMSO stocks (10 mM, which is 1,000× of the 10 μM dose level) of hinokitiol or test articles were prepared. A stock solution of 25 mM deferiprone in DMSO was prepared. The DMSO stock solutions were stored at −20° C. or below when not in use.
The growth medium was prepared according to the following table
Apical media (serum free DMEM, 10 mM MES, pH 6.5) was prepared. Apical master mix media was prepared fresh with the addition of 200 nM ^55Fe before each experiment. For the negative control propranolol and atenolol wells, 200 nM of non-radioactive iron was used.
The basolateral media was serum-free DMEM, 10 mM HEPES, 2% bovine serum albumin (BSA), pH 7.4.
For each experiment, cells were seeded into the 24-well transwell plates (0.5 mL of 50,000 cells/mL) with growth media. The basolateral companion plate was loaded with 1 mL of growth media. After 12-24 hr, both the apical and basolateral chamber were replaced with growth media. The apical media was changed 3× per week for 21-28 days, including a media change exactly 48 hr before the assay date.
On the assay day, the TEER values were measured and the average TEER value was obtained. Individual wells with TEER value >35% lower than the average of all wells were excluded. For the qualified wells, the apical layer (twice) and basolaterial (once) chambers were washed with PBS. The basolateral companion plate was then filled with 1 mL of basolateral media. Via addition down the side-wall of the apical well, 300 μL per well of the apical assay master mix, with the indicated dose level of test article, was added. Each dose was tested in triplicate. The plates were incubated (5% CO2 and 90% humidity at 37° C.) for the indicated timepoints. At each indicated timepoint, the basolateral supernatant was gently mixed via pipetting, and 200 μL of the basolateral supernatant was transferred to scintillation vials. To each scintillation counting vial, 5 mL of scintillation cocktail fluid was added. For each scintillation vial, the radioactivity (CPM) was determined with liquid scintillation counter LS6500. The counting time per vial was 5 min.
All raw CPM values are divided by the average value of blank DMSO solution to give a fold of change above the DMSO value. The mean and standard deviation of each compound at each concentration level and at each time point measured was calculated to give the fold change (fc) value. For rank order compounds, the fc value of a ligand at 4 h time point is further divided by the fold change (fc) value of hinokitiol (a positive control compound) at an equimolar concentration to arrive at the FC (normalized fold of change) value. Data reported in Tables 1 and 2 is 4 hr time point FC=fc-ligand @ 3 uM/fc-hino @ 3 μM, and FC hino=1.

Row | Structure (SMILES) | Liposome Fe transport kefflux at 10 μM [1] | Caco2 shDMT1 transport FC @ 3 μM, 4 h [2]
1 | O=c1ccccc(OC2COC2)c1O | 0.1-5 | 0.01-0.5
2 | CC(C)c1ccc(F)c(=O)c(O)c1F | 7.5-10 | 0.01-0.5
3 | Cc1cccc(Cl)c(=O)c1O | 5-7.5 | 0.01-0.5
4 | CCc1ccc(O)c(=O)c(F)c1 | 0.1-5 | 0.01-0.5
5 | CCc1cc(F)ccc(=O)c1O | 7.5-10 | 1-5
6 | CCc1cccc(Cl)c(=O)c1O | 7.5-10 | 0.01-0.5
7 | O=c1c(O)ccc(OC2CCC2)cc1F | 10-25 | 0.01-0.5
8 | O=c1ccccc(OC2CC(F)(F)C2)c1O | 7.5-10 | 1-5
9 | O=c1cccc(OC2CC2)cc1O | 5-7.5 | 1-5
10 | O=c1cccc(O[C@@H]2CCOC2)cc1O (stereo in doubt) | 0.1-5 | 0.01-0.5
11 | Cc1c(O)c(=O)ccn1C [deferiprone, reference compound] | 0 | 0.02-0.03
12 | CC(C)c1ccc(F)c(=O)c(O)c1 [drawing 176] | 10-25 | 0.01-0.5
13 | CC(C)c1cccc(=O)c(O)c1F [drawing 177] | 10-25 | 0.01-0.5
14 | CC(C)c1cccc(F)c(=O)c1O [drawing 179] | 10-25 | 0.01-0.5
15 | O=c1cccc(C2CC3CCC(C2)O3)cc1O (stereo not shown) [drawing 181] | 7.5-10 | 0.01-0.5
16 | O=c1ccccc(C2CCOCC2)c1O [drawing 183] | 0.1-5 | 1-5
17 | O=c1ccc(OC2COC2)ccc1O [drawing 187] | 5-7.5 | 0.01-0.5
18 | CCc1cccc(C)c(=O)c1O [drawing 202] | 5-7.5 | 0.01-0.5
19 | Cc1cc(C(C)C)ccc(O)c1=O [drawing 203] | 10-25 | 1-5
20 | Cc1cccc(C(C)C)c(O)c1=O [drawing 205] | 5-7.5 | 0.5-1
21 | Cc1cccc(F)c(=O)c1O [drawing 207] | 10-25 | 0.01-0.5
22 | O=c1c(O)cc(C2CC2)ccc1F [drawing 209] | 7.5-10 | 0.01-0.5
23 | O=c1c(F)cccc(C2CCOCC2)c1O [drawing 211] | 5-7.5 | 0.01-0.5
24 | O=c1ccccc(OC2CCC2)c1O [drawing 233] | 7.5-10 | 0.01-0.5
25 | O=c1ccccc(OC2CC3(CC3)C2)c1O [drawing 259] | 10-25 | 1-5
26 | O=c1ccccc(OCC2CC2)c1O [drawing 260] | 10-25 | 1-5
